The structures appear in SMILES notation. pKi: −log10 of the molar value. Bounds are passed on as bounds.

The test system of assay [1] is TGF-β-stimulated SMAD3 phosphorylation in BEAS-2B cells. Kind of assay: Cellular ALK5 potency assay, inhibition of TGF-β stimulated pSMAD3 formation in BEAS-2B cells. To be noted: Homo sapiens, inhibition of TGF-β (10 ng/mL) stimulated pSMAD3 formation, 1 hour compound incubation, read-out: BEAS2B pIC50 (converted). It is filed as cell-based. The gist of the method: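 Phospho-SMAD3 was quantified by AlphaLISA in lysates of human lung epithelial BEAS-2B cells. Compound was added 1 h (37 °C, HEPES/BSA-supplemented HBSS) before a 30 min challenge with 10 ng/mL TGF-β. Values are pIC50 relative to stimulated cells without compound.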

Assay [2] concerns the target T1, recombinant human ALK5 (TGF-βR1) protein (Homo sapiens, UniProt P36897).
T1 construct: purchased Life Technologies PR9075A
T1 sequence (P36897 34-503): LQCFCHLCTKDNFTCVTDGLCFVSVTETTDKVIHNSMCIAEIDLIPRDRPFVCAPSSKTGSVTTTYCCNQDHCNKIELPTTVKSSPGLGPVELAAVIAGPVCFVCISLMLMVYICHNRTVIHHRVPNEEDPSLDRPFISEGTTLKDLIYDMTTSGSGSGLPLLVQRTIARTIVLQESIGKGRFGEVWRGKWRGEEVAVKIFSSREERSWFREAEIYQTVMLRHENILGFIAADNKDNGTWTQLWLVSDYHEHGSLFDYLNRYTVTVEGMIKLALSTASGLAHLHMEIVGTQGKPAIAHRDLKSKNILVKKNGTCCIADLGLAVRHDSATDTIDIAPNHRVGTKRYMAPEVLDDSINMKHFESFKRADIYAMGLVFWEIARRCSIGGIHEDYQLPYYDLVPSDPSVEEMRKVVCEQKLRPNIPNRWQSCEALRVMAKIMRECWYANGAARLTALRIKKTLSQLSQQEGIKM
Kind of assay: Biochemical ALK5 (TGF-βR1) assay to measure pKi (LANCE Ultra ULight kinase assay). The settings on record: apparent pKi, converted from pIC50 using the Cheng-Prusoff equation. The gist of the method: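 TR-FRET kinase format: compound dose range 10 μM–25 pM equilibrated 60 min with human ALK5 and ULight-labelled topoisomerase 2α peptide in HEPES/MgCl2 buffer pH 7.5 with DTT. Reaction started with ATP (125 μM stock, 5× final), 60 min at 37° C, stopped with EDTA/Eu-anti-phospho antibody; pKi derived from pIC50 via Cheng-Prusoff.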

For `Cc1oc(=O)oc1CN1CCN(c2cnc3ccc(-c4nc[nH]c4-c4cc(Cl)ccc4F)nc3c2)CC1` [Compound 2-37, 4-[[4-[6-[5-(5-chloro-2-fluoro-phenyl)-1H-imidazol-4-yl]-1,5-naphthyridin-3-yl]piperazin-1-yl]methyl]-5-methyl-1,3-dioxol-2-one], the IC50 in assay [1] is 200 to 1260 nM. Besides, the pKi in assay [2] is 9.50 to 10.40.
As to `CCOC(=O)[C@H]1CN(c2cnc3ccc(-c4nc[nH]c4-c4cc(Cl)ccc4F)nc3c2)CCN1` [Compound 2-38, ethyl (2R)-4-[6-[5-(5-chloro-2-fluoro-phenyl)-1H-imidazol-4-yl]-1,5-naphthyridin-3-yl]piperazine-2-carboxylate], the IC50 in assay [1] is 25.1 to 158 nM. The pKi in assay [2] was 7.50 to 8.40.
With `CC(C)N1CCN(CCNc2cnc3ccc(-c4c(-c5cc(Cl)ccc5F)nc5ccccn45)nc3c2)CC1` [Compound 3-1, 6-(2-(5-chloro-2-fluorophenyl)imidazo[1,2-a]pyridin-3-yl)-N-(2-(4-isopropylpiperazin-1-yl)ethyl)-1,5-naphthyridin-3-amine], the IC50 in assay [1] was 25.1 to 158 nM. For the same compound, the pKi in assay [2] is 9.50 to 10.40.
The corresponding values for `Fc1ccc(Cl)cc1-c1nc2ccccn2c1-c1ccc2ncc(N3CCNCC3)cc2n1` [Compound 3-2, 2-(2-(5-chloro-2-fluorophenyl)imidazo[1,2-a]pyridin-3-yl)-7-(piperazin-1-yl)-1,5-naphthyridine] are 200 to 1260 nM and 9.50 to 10.40.
On the same counts, the results for `Fc1ccc(Cl)cc1-c1nc2ccccn2c1-c1ccc2ncc(N3CCCNCC3)cc2n1` [Compound 3-3, 2-[2-(5-chloro-2-fluoro-phenyl)imidazo[1,2-a]pyridin-3-yl]-7-(1,4-diazepan-1-yl)-1,5-naphthyridine] are 25.1 to 158 nM and 9.50 to 10.40.
Consider `CN1CCN(C2CCN(c3cnc4ccc(-c5c(-c6cc(Cl)ccc6F)nc6ccccn56)nc4c3)CC2)CC1` [Compound 3-5, 2-[2-(5-chloro-2-fluoro-phenyl)imidazo[1,2-a]pyridin-3-yl]-7-[4-(4-methylpiperazin-1-yl)-1-piperidyl]-1,5-naphthyridine], for which the IC50 in assay [1] was 200 to 1260 nM. Also, the pKi in assay [2] is 9.50 to 10.40.
As for `Fc1ccc(Cl)cc1-c1nc2ccccn2c1-c1ccc2ncc(-c3nnn4c3CNCC4)cc2n1` [Compound 3-6, 2-(2-(5-chloro-2-fluorophenyl)imidazo[1,2-a]pyridin-3-yl)-7-(4,5,6,7-tetrahydro-[1,2,3]triazolo[1,5-a]pyrazin-3-yl)-1,5-naphthyridine], the IC50 in assay [1] is 25.1 to 158 nM. Moreover, in assay [2], the pKi is 9.50 to 10.40.
On the same counts, the results for `Fc1ccc(Cl)cc1-c1nc2ccccn2c1-c1ccc2ncc(-c3cnn4c3CNCC4)cc2n1` [Compound 3-7, 2-[2-(5-chloro-2-fluoro-phenyl)imidazo[1,2-a]pyridin-3-yl]-7-(4,5,6,7-tetrahydropyrazolo[1,5-a]pyrazin-3-yl)-1,5-naphthyridine] are 25.1 to 158 nM and 9.50 to 10.40.
The corresponding values for `Fc1ccc(Cl)cc1-c1nc2ccccn2c1-c1ccc2ncc(-c3cnc4n3CCNC4)cc2n1` [Compound 3-8, 2-[2-(5-chloro-2-fluoro-phenyl)imidazo[1,2-a]pyridin-3-yl]-7-(5,6,7,8-tetrahydroimidazo[1,2-a]pyrazin-3-yl)-1,5-naphthyridine] are 25.1 to 158 nM and 9.50 to 10.40.
As to `Fc1ccc(Cl)cc1-c1nc2ccccn2c1-c1ccc2ncc(-c3nc4n(n3)CCNC4)cc2n1` [Compound 3-9, 2-[2-(5-chloro-2-fluoro-phenyl)imidazo[1,2-a]pyridin-3-yl]-7-(5,6,7,8-tetrahydro-[1,2,4]triazolo[1,5-a]pyrazin-2-yl)-1,5-naphthyridine], in assay [1], the IC50 is 25.1 to 158 nM. In addition, in assay [2], the pKi was 9.50 to 10.40.
On to `Fc1ccc(Cl)cc1-c1nc2ccccn2c1-c1ccc2ncc(-c3cn[nH]c3)cc2n1` [Compound 3-10, 2-[2-(5-chloro-2-fluoro-phenyl)imidazo[1,2-a]pyridin-3-yl]-7-(1H-pyrazol-4-yl)-1,5-naphthyridine], for which, in assay [1], the IC50 was 1580 to 10000 nM. Also, the pKi in assay [2] was 8.50 to 9.40.
As for `Fc1ccc(Cl)cc1-c1nnn(Cc2ccccc2)c1-c1ccc2ncccc2n1` [Compound 4-1, 2-(1-benzyl-4-(5-chloro-2-fluorophenyl)-1H-1,2,3-triazol-5-yl)-1,5-naphthyridine], the IC50 in assay [1] was 200 to 1260 nM. In addition, in assay [2], the pKi was 8.50 to 9.40.
In the case of `COC(=O)c1cnc2ccc(-c3c(-c4cc(Cl)ccc4F)nnn3Cc3ccccc3)nc2c1` [Compound 4-2, methyl 6-[3-benzyl-5-(5-chloro-2-fluoro-phenyl)triazol-4-yl]-1,5-naphthyridine-3-carboxylate], the IC50 in assay [1] is 200 to 1260 nM. For the same compound, the pKi in assay [2] was 7.50 to 8.40.
The corresponding values for `COC(=O)c1cnc2ccc(-c3[nH]nnc3-c3cc(Cl)ccc3F)nc2c1` [Compound 5-1, methyl 6-(4-(5-chloro-2-fluorophenyl)-1H-1,2,3-triazol-5-yl)-1,5-naphthyridine-3-carboxylate] are 25.1 to 158 nM and 8.50 to 9.40.
The corresponding values for `Fc1ccc(Cl)cc1-c1[nH]nnc1-c1ccc2ncc(-c3c[nH]nc3C(F)(F)F)cc2n1` [Compound 5-2, 2-(5-(5-chloro-2-fluorophenyl)-1H-1,2,3-triazol-4-yl)-7-(3-(trifluoromethyl)-1H-pyrazol-4-yl)-1,5-naphthyridine] are 25.1 to 158 nM and 7.50 to 8.40.
On the same counts, the results for `CC(C)N1CCN(CCNc2cnc3ccc(-c4c[nH]nc4-c4cc(Cl)c(F)cc4F)nc3c2)CC1` [Compound 6-1, 6-(3-(5-chloro-2,4-difluorophenyl)-1H-pyrazol-4-yl)-N-(2-(4-isopropylpiperazin-1-yl)ethyl)-1,5-naphthyridin-3-amine] are 25.1 to 158 nM and 9.50 to 10.40.
As for `CN1CCN(CCNc2cnc3ccc(-c4c[nH]nc4-c4cc(Cl)c(F)cc4F)nc3c2)CC1` [Compound 6-2, 6-[3-(5-chloro-2,4-difluoro-phenyl)-1H-pyrazol-4-yl]-N-[2-(4-methylpiperazin-1-yl)ethyl]-1,5-naphthyridin-3-amine], the IC50 in assay [1] is at most 20 nM. Further, the pKi in assay [2] was 9.50 to 10.40.
On to `CCN1CCN(CCNc2cnc3ccc(-c4c[nH]nc4-c4cc(Cl)c(F)cc4F)nc3c2)CC1` [Compound 6-3, 6-[3-(5-chloro-2,4-difluoro-phenyl)-1H-pyrazol-4-yl]-N-[2-(4-ethylpiperazin-1-yl)ethyl]-1,5-naphthyridin-3-amine], for which, in assay [1], the IC50 was at most 20 nM. Further, the pKi in assay [2] was 9.50 to 10.40.
The corresponding values for `Fc1cc(F)c(-c2n[nH]cc2-c2ccc3ncc(NCC4CN5CCN4CC5)cc3n2)cc1Cl` (stereo not shown) [Compound 6-4, 6-[3-(5-chloro-2,4-difluoro-phenyl)-1H-pyrazol-4-yl]-N-(1,4-diazabicyclo[2.2.2]octan-2-ylmethyl)-1,5-naphthyridin-3-amine] are 25.1 to 158 nM and 9.50 to 10.40.
On the same counts, the results for `CC1(C)CCCN1CCNc1cnc2ccc(-c3c[nH]nc3-c3cc(Cl)c(F)cc3F)nc2c1` [Compound 6-5, 6-[3-(5-chloro-2,4-difluoro-phenyl)-1H-pyrazol-4-yl]-N-[2-(2,2-dimethylpyrrolidin-1-yl)ethyl]-1,5-naphthyridin-3-amine] are 25.1 to 158 nM and 9.50 to 10.40.

For the origin of these results see US11730720B2, “ALK5 inhibitors” (THERAVANCE BIOPHARMA R&D IP, LLC, priority 2018, dated 2023).
